Laboratory results from patent US12714723B2, “Compositions and methods for cancer therapy” (AIM ImmunoTech Inc., priority 2018, dated 2026).
Read-outs that look alike come from different tables or passages of the source. Marks after values point to notes of the source that are not given here.

How the values were obtained:
pancreatic carcinoma [1] = test: Second-line therapy following progression on FOLFIRINOX; type: in vivo, human; settings: Overall (mean)
From the text: Overall Survival (OS) increased from 6.8 months with Gemcitabine to 11.1 months with FOLFIRINOX (p<0.001). However, the Complete Response Rate (CR) was only 0.6%.

[2] = tested on: locally advanced and metastatic pancreatic carcinoma; settings: first-line therapy, n = 171 per arm; cited from earlier work
pancreatic carcinoma [3] = settings: second-line, cited from earlier work
[4] = tested on: TME of metastatic colorectal carcinoma; settings: 9 patients vs. historical controls
From the text: Colorectal carcinoma was used as a GI model for pancreatic carcinoma in order to obtain biopsy specimens of the TME. We used […]® to determine if there is improvement in the Teff/Treg ratio in the TME secondary to the […]® induction of desirable chemokines, such as CXCL 10 (Teff-attractant), in the TME, while decreasing the unfavorable chemokines, such as CCL22 (C-C Motif Chemokine Ligand 22; Treg-attractant), thereby increasing the Teff/Treg ratio in the TME.
See, Example Section below.

[5] = tested on: human bladder tumor xenografts; test: Human bladder tumor xenografts in nude mice; type: in vivo
[6] = tested on: renal cell carcinoma (786-0) xenografts; test: Renal cell carcinoma (786-0) xenografts in nude mice; type: in vivo; settings: for tumor growth: FIG. 7, vs untreated controls
[7] = tested on: renal cell carcinoma (786-0) xenografts; settings: Hubbell, 1990, cited from earlier work
B16 melanoma tumors = settings: n = 10; for Number of Partial Responses (PR) / Number of Complete Responses (CR): Day 30; for Number of Complete Responses (CR): RECIST v1.1
Experimental: Rintatolimod together with anti-PD-L1 antibodies were tested for anti-tumor activity against established subcutaneous B16 melanoma tumors in C57BL/6 mice. Mice (10 animals per group) were inoculated with 0.4×10E6 B16-F10 tumor cells in their shaved rear flanks. Seven days later (when tumors reached 0.3 to 0.5 cm in their largest diameter), mice were randomized for tumor sizes, and individually tagged and were allocated to the following six treatment groups: • No treatment (negative controls) • Rintatolimod alone 100 μg/dose 4× • Rintatolimod alone 250 μg/dose 4× • Anti-PD-L1 mAb alone • Rintatolimod 100 μg/dose 4× plus anti-PD-L1 mAb • Rintatolimod 250 μg/dose 4× plus anti-PD-L1 mAb
Rintatolimod was injected intravenously at 100 or 250 micrograms/dose and was repeated 4 times, 5 days apart. Anti-PD-L1 mAb (clone 10F.9G2, BioXCell) was administered intraperitoneally on Days 1 and 3 after each rintatolimod injection at a 200 microgram/dose. Tumors were measured 3 times per week using a set of calipers, taking measurement of 2 opposing diameters and were recorded as tumor areas.
Results were presented as tumor sizes for individual mice throughout the time of therapy, average tumor size in each group and survival up to Day 30 (time to euthanasia).
® and anti-PD-L1 antibodies were tested for anti-tumor activity against established subcutaneous B16 melanoma tumors in C57BL/6 mice. Briefly, mice (10 animals per group) were inoculated with 0.4×10E6 (i.e., 400,000) B16-F10 tumor cells in their shaved rear flanks. Seven days later, mice were randomized to six treatment groups as follows: (Group 1) No treatment (negative controls); (Group 2) […] ® alone 100 μg/dose 4×; (Group 3) […] ® alone 250 μg/dose 4×; (Group 4) Anti-PD-L1 mAb alone; (Group 5) […] ® 100 μg/dose 4× plus anti-PD-L1 mAb; (Group 6) […] ® 250 μg/dose 4× plus anti-PD-L1 mAb. mAb refers to monoclonal antibody.
® was injected IV at 100 or 250 μg/dose 4 times, 5 days apart. Anti-PD-L1 mAb was administered IP on Days 1 and 3 after each […] ® dose at 200 μg/dose. Tumors were measured 3 times per week using calipers, measuring 2 opposing diameters. […] Results were presented as tumor sizes for individual mice throughout time of therapy up to Day 30.

pancreatic tumors = settings: n = 8 each
Experimental: Please note that all four cohorts (control, […] ®, anti-PD-L1, […] ®+anti-PD-L1) were studied in the same parallel experiment.
In this experiment, sub-therapeutic doses of […] ® were administered in mouse models of pancreatic cancer.

Nc1ccn([C@@H]2O[C@H](CO)[C@@H](O)C2(F)F)c(=O)n1 [Gemcitabine]
Partial Response Rates (PR) (pancreatic carcinoma [1]): 6.4% | Complete Response Rates (CR) (pancreatic carcinoma [1]; weighted average): 0%* | Progression Free Survival (PFS) (pancreatic carcinoma [1]; weighted average): 2.24* months | Overall Survival (OS) (pancreatic carcinoma [1]; weighted average based on n in each study): 4.05* months | Complete Response Rates (CR), % [2]: 0(0) % | Overall Survival (OS) [2]: 6.8 months | Partial Response Rates (PR), % [2]: 9.4% | Progression Free Survival (PFS) [2]: 3.3 months | Progression Free Survival (PFS) (pancreatic carcinoma [3]; Gilabert, et al. 2017, n = 72): 2.5 months | Complete Response Rates (CR) (pancreatic carcinoma [3]; Gilabert, et al. 2017): 0% | Partial Response Rates (PR) (pancreatic carcinoma [3]; Gilabert, et al. 2017): 5.5% | Overall Survival (OS) (pancreatic carcinoma [3]; Viaud, et al. 2017, n = 96): 3.7 months | Progression Free Survival (PFS) (pancreatic carcinoma [3]; Viaud, et al. 2017, n = 96): 2.1 months | Complete Response Rates (CR) (pancreatic carcinoma [3]; Viaud, et al. 2017): 0% | Partial Response Rates (PR) (pancreatic carcinoma [3]; Viaud, et al. 2017): 8.3% | Overall Survival (OS) (pancreatic carcinoma [3]; da Rocha, et al. 2015, n = 20): 5.7 months | Progression Free Survival (PFS) (pancreatic carcinoma [3]; da Rocha, et al. 2015, n = 20): 2.0 months | Complete Response Rates (CR) (pancreatic carcinoma [3]; da Rocha, et al. 2015): 0% | Partial Response Rates (PR) (pancreatic carcinoma [3]; da Rocha, et al. 2015): 0%

polyriboinosinic:polyribocytidylic(12:1)uridylic acid
ratio of Teff/Treg markers in the TME [4]: improved ratios | growth of human bladder tumor xenografts [5]: significantly inhibited | survival of nude mice ([6]; FIG. 8, 100% death rate for untreated controls): 100% | tumor growth ([6]; monotherapy, listed as rintatolimod): tumor regression was observed in each mouse | tumor growth ([6]; monotherapy, listed as tdsRNA): growth inhibition | mice free of the residual tumor ([6]; monotherapy, 100% of the control group had died): 90% | tumor growth inhibition ([7]; p<0.001): statistically significant tumor growth inhibition | survival ([7]; p<0.002): increased survival | Total # Tumor Responses CR + PR (B16 melanoma tumors; rintatolimod 100 μg/dose 4×): 0 | Number of Partial Responses (PR) (B16 melanoma tumors; rintatolimod 100 μg/dose 4×): 0 | Number of Complete Responses (CR) (B16 melanoma tumors; rintatolimod 100 μg/dose 4×): 0 | Total # Tumor Responses CR + PR (B16 melanoma tumors; rintatolimod 250 μg/dose 4×): 0 | Number of Partial Responses (PR) (B16 melanoma tumors; rintatolimod 250 μg/dose 4×): 0 | Number of Complete Responses (CR) (B16 melanoma tumors; rintatolimod 250 μg/dose 4×): 0 | Time to Progression Median (pancreatic tumors; sub-therapeutic doses, control 33): 33 days | Increased Time to Progression (pancreatic tumors; versus control): 0 days
